The target of assay [1] is T1, MurA (EPT E coli) (Escherichia coli, UniProt P0A749).
T1 construct: made in house
Put plainly: Kinetic IC50 assay of MurA inhibition (Malachite Green), EPT E coli. It is filed as biochemical.

Assay [2] concerns the target MurA (EPT Y pestis) (Yersinia pestis, UniProt Q8ZB56). Put plainly: biochemical.
Setting [3] is: MurA enzyme, E coli, values given as ranges, read-out: IC50 EPT E coli.

pIC50: −log10 of the molar value. Where two headings read alike, the source gives them in different places. Where only a bound is given, the exact number is not on record here.

T1 sequence (P0A749 whole entry): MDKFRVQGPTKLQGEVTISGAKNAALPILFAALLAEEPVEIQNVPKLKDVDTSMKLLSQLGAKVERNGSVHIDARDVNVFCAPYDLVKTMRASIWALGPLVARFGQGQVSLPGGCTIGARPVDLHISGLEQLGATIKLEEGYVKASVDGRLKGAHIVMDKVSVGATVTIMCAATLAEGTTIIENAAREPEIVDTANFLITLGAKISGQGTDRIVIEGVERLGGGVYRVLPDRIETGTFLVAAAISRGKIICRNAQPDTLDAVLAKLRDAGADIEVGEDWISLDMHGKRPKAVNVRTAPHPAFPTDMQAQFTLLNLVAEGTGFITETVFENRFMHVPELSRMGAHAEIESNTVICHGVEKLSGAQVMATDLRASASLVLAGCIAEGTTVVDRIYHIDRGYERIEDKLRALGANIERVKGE
Chain of MurA (EPT Y pestis) (Q8ZB56 whole entry, looked up): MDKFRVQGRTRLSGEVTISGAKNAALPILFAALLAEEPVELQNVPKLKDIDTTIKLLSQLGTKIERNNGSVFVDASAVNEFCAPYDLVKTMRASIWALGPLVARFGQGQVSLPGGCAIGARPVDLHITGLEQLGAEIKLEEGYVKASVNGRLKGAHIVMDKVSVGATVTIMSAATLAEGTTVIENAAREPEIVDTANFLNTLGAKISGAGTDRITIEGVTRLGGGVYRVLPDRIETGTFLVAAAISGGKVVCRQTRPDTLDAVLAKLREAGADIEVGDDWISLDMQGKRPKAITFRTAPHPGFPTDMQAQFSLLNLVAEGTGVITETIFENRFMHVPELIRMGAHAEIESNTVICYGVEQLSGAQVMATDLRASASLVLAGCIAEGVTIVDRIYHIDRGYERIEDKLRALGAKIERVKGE

`O=C(Oc1ccc(-c2ccccc2)cc1[N+](=O)[O-])c1cccc2c1NC(C(=O)O)C1CC=CC21` (stereo not drawn) [Compound 23]: the values for the pIC50 in assay [1] and in assay [2] were 4.30 to 4.52 and 4.70 to 5.00, respectively.

Turning to `O=C(Nc1ccccc1)c1cccc2c1NC(C(=O)O)C1CC=CC21` (stereo not drawn) [Compound 9], the pIC50 in assay [1] (setting [3]) was < 3.70.

With `O=C(Oc1ccc(-c2ccccc2)cc1Cl)c1cccc2c1NC(C(=O)O)C1CC3OC3C21` (stereo not drawn) [Compound 22], the negative-log IC50 (pIC50) in assay [1] (setting [3]) is 4.22 to 4.40; in assay [2], 4.52 to 5.00.

Consider `O=C(Nc1ccc(Cl)cc1)c1cccc2c1NC(C(=O)O)C1CC=CC21` (stereo not drawn) [Compound 13], for which, in assay [1] (setting [3]), the negative logarithm of the IC50 (pIC50) is < 3.70.

As to `O=C(O)C1Nc2c(COc3ccccc3)cccc2C2C=CCC12` (stereo not drawn) [Compound 25], the negative-log IC50 (pIC50) in assay [1] (setting [3]) is < 3.70.

As to `COc1ccc(NC(=O)c2cccc3c2NC(C(=O)O)C2CC=CC32)cc1` (stereo not drawn) [Compound 14], the negative-log IC50 (pIC50) in assay [1] (setting [3]) was < 3.70.

As for `O=C(O)C1Nc2c(OCc3ccccc3)cccc2C2C=CCC12` (stereo not drawn) [Compound 29], in assay [1] (setting [3]), the pIC50 was < 3.70.

For the compound `O=C(O)C1Nc2cc(C(F)(F)F)ccc2C2C=CCC12` (stereo not drawn) [Compound 5], the negative logarithm of the IC50 (pIC50) was 3.70 to 3.82 in assay [1] (setting [3]) and 4.52 to 5.00 in assay [2].

For the compound `O=C(Nc1ccc(-c2ccccc2)cc1)c1cccc2c1NC(C(=O)O)C1CC=CC21` (stereo not drawn) [Compound 15], the negative-log IC50 (pIC50) in assay [1] (setting [3]) was 4.00 to 4.30.

With `Cc1ccc(OC(=O)c2cccc3c2NC(C(=O)O)C2CC=CC32)cc1` (stereo not drawn) [Compound 44], the negative logarithm of the IC50 (pIC50) in assay [1] (setting [3]) is 5.00 to 6.00; in assay [2], 5.30 to 6.00.

For `O=C(Oc1ccccc1)c1cccc2c1NC(C(=O)O)C1CC=CC21` (stereo not drawn) [Compound 43], the pIC50 in assay [1] (setting [3]) is 4.30 to 4.52.

In the case of `CC(C)(C)c1ccc(OCc2cccc3c2NC(C(=O)O)C2CC=CC32)cc1` (stereo not drawn) [Compound 26], in assay [1] (setting [3]), the pIC50 was < 3.70.

Turning to `CC(=O)N(c1ccccc1)c1ccc(OC(=O)c2cccc3c2NC(C(=O)O)C2CC=CC32)cc1` (stereo not drawn) [Compound 42], in assay [1] (setting [3]), the negative logarithm of the IC50 (pIC50) is 4.22 to 4.40.

For the compound `COc1ccc(-c2ccc(OC(=O)c3cccc4c3NC(C(=O)O)C3CC=CC43)cc2)cc1` (stereo not drawn) [Compound 32], the values for the pIC50 in assay [1] (setting [3]) and in assay [2] were 4.22 to 4.40 and 4.60 to 4.82, respectively.

Regarding `N#Cc1cc(COc2cccc3c2NC(C(=O)O)C2CC=CC32)ccc1-c1ccccc1` (stereo not drawn) [Compound 37], the pIC50 in assay [1] (setting [3]) was < 3.70.

On to `O=C(Oc1ccc([N+](=O)[O-])cc1)c1cccc2c1NC(C(=O)O)C1CC=CC21` (stereo not drawn) [Compound 48], for which, in assay [1], the pIC50 is 3.70 to 3.74.

For the compound `O=C(O)C1Nc2ccc(F)c(Cl)c2C2C=CCC12` (stereo not drawn) [Compound 2], the negative logarithm of the IC50 (pIC50) is < 3.70 in assay [1] (setting [3]) and 4.52 to 5.00 in assay [2].

`O=C(O)C1Nc2c(C(=O)N3CCN(c4ccccc4)CC3)cccc2C2C=CCC12` (stereo not drawn) [Compound 10]: the pIC50 in assay [1] (setting [3]) was < 3.70.

For the compound `O=C(Oc1ccc(Oc2ccccc2)cc1)c1cccc2c1NC(C(=O)O)C1CC=CC21` (stereo not drawn) [Compound 39], the negative-log IC50 (pIC50) in assay [1] (setting [3]) is 4.15 to 4.30; in assay [2] it was 4.52 to 5.00.

Turning to `NC(=O)c1cccc2c1NC(C(=O)O)C1CC=CC21` (stereo not drawn) [Compound 7], the negative-log IC50 (pIC50) is 4.70 to 5.30 in assay [1] (setting [3]) and 4.40 to 4.70 in assay [2].

For `O=C(Oc1ccc(Cl)cc1)c1cccc2c1NC(C(=O)O)C1CC=CC21` (stereo not drawn) [Compound 45], the negative logarithm of the IC50 (pIC50) in assay [1] (setting [3]) is 3.74 to 3.80.

Take `O=C(O)C1Nc2ccc(F)cc2C2C=CCC12` (stereo not drawn) [Compound 1]: the negative-log IC50 (pIC50) in assay [1] (setting [3]) was 4.70 to 5.30; in assay [2] it was 4.40 to 4.70.

With `CCOC(=O)C1Nc2c(C(=O)Oc3ccc(-c4cccc(C#N)c4)cc3)cccc2C2C=CCC12` (stereo not drawn) [Compound 12], the negative logarithm of the IC50 (pIC50) in assay [1] (setting [3]) is < 3.70.

`COc1ccc(OC(=O)c2cccc3c2NC(C(=O)O)C2CC=CC32)cc1` (stereo not drawn) [Compound 46]: in assay [1] (setting [3]), the negative-log IC50 (pIC50) was 5.00 to 6.00.

On to `CCOC(=O)C1Nc2c(C(=O)Oc3ccc(-c4ccc(C#N)cc4)cc3)cccc2C2C=CCC12` (stereo not drawn) [Compound 11], for which, in assay [1] (setting [3]), the pIC50 is < 3.70.

Consider `O=C(Oc1ccc(-c2ccccc2)cc1)c1cc(Cl)cc2c1NC(C(=O)O)C1CC=CC21` (stereo not drawn) [Compound 40], for which the pIC50 in assay [1] (setting [3]) was 4.30 to 4.52; in assay [2] it was 4.82 to 5.30.

Turning to `O=C(O)C1Nc2c(COc3ccc(-c4ccccc4)cc3)cccc2C2C=CCC12` (stereo not drawn) [Compound 36], the pIC50 in assay [1] (setting [3]) is < 3.70.

For `O=C(Oc1ccc(-c2ccc([N+](=O)[O-])cc2)cc1)c1cccc2c1NC(C(=O)O)C1CC=CC21` (stereo not drawn) [Compound 33], the pIC50 was 4.22 to 4.40 in assay [1] (setting [3]) and 4.70 to 5.00 in assay [2].

On to `O=C(Oc1ccc(-c2ccccc2)cc1Cl)c1cccc2c1NC(C(=O)O)C1CC=CC21` (stereo not drawn) [Compound 21], for which the pIC50 in assay [1] (setting [3]) was 4.30 to 4.52; in assay [2], 4.82 to 5.30.

With `O=C(Oc1cc(Cl)cc(Cl)c1)c1cccc2c1NC(C(=O)O)C1CC=CC21` (stereo not drawn) [Compound 49], the negative-log IC50 (pIC50) is 4.30 to 4.52 in assay [1] (setting [3]) and 5.00 to 6.00 in assay [2].

As to `Cc1ccc(OCc2cccc3c2NC(C(=O)O)C2CC=CC32)cc1` (stereo not drawn) [Compound 28], the negative-log IC50 (pIC50) in assay [1] (setting [3]) was < 3.70.

As to `COc1ccc(-c2ccc(N(Cc3cccc4c3NC(C(=O)O)C3CC=CC43)C(C)=O)cc2)cc1` (stereo not drawn) [Compound 50], in assay [1] (setting [3]), the pIC50 was 3.77 to 3.82.

Turning to `CC(C)(C)c1ccc(OC(=O)c2cccc3c2NC(C(=O)O)C2CC=CC32)cc1` (stereo not drawn) [Compound 47], the negative-log IC50 (pIC50) was 4.70 to 5.00 in assay [1] (setting [3]) and 4.82 to 5.30 in assay [2].

For the compound `O=C(Oc1ccc(-c2ccc(O)cc2)cc1)c1cccc2c1NC(C(=O)O)C1CC=CC21` (stereo not drawn) [Compound 31], the pIC50 is 3.96 to 4.05 in assay [1] (setting [3]) and 4.40 to 4.70 in assay [2].

On to `CN(C)C(=O)c1ccc(-c2ccc(OC(=O)c3cccc4c3NC(C(=O)O)C3CC=CC43)cc2)cc1` (stereo not drawn) [Compound 35], for which the pIC50 in assay [1] (setting [3]) is < 3.70.

As for `O=C(O)c1ccc2c(c1)C1C=CCC1C(C(=O)O)N2` (stereo not drawn) [Compound 3], the results for the pIC50 in assay [1] (setting [3]) and in assay [2] were 4.40 to 5.70 and 4.52 to 5.00, respectively.

In the case of `O=C(O)C1Nc2c(COc3ccc(Cl)cc3)cccc2C2C=CCC12` (stereo not drawn) [Compound 27], the pIC50 in assay [1] (setting [3]) was < 3.70.

For `CC(=O)Nc1ccc2c(c1)C1C=CCC1C(C(=O)O)N2` (stereo not drawn) [Compound 6], the negative logarithm of the IC50 (pIC50) in assay [1] (setting [3]) is < 3.70; in assay [2], 4.00 to 4.30.

For `CN(C)C(=O)c1cccc2c1NC(C(=O)O)C1CC=CC21` (stereo not drawn) [Compound 4], the pIC50 was < 3.70 in assay [1] (setting [3]) and 3.92 to 4.10 in assay [2].

In the case of `CCOC(=O)C1Nc2c(C(=O)Nc3ccccc3)cccc2C2C=CCC12` (stereo not drawn) [Compound 8], the negative logarithm of the IC50 (pIC50) in assay [1] (setting [3]) is < 3.70.

Consider `O=C(c1ccccc1)c1ccc(OC(=O)c2cccc3c2NC(C(=O)O)C2CC=CC32)cc1` (stereo not drawn) [Compound 41], for which the values for the negative logarithm of the IC50 (pIC50) in assay [1] (setting [3]) and in assay [2] were 3.85 to 3.92 and 4.10 to 4.15, respectively.

Turning to `COc1ccc(-c2ccc(COc3cccc4c3NC(C(=O)O)C3CC=CC43)cc2)cc1` (stereo not drawn) [Compound 38], the pIC50 in assay [1] (setting [3]) was < 3.70.

For `N#Cc1ccc(-c2ccc(OC(=O)c3cccc4c3NC(C(=O)O)C3CC=CC43)cc2)cc1` (stereo not drawn) [Compound 24], the pIC50 was 4.22 to 4.40 in assay [1] (setting [3]) and 4.52 to 4.70 in assay [2].

Take `O=C(Oc1ccc(-c2ccc(Cl)cc2)cc1)c1cccc2c1NC(C(=O)O)C1CC=CC21` (stereo not drawn) [Compound 34]: the pIC50 in assay [1] (setting [3]) was 4.10 to 4.22; in assay [2] it was 5.00 to 6.00.

As for `Cc1ccc(COc2cccc3c2NC(C(=O)O)C2CC=CC32)cc1` (stereo not drawn) [Compound 30], in assay [1] (setting [3]), the negative logarithm of the IC50 (pIC50) is < 3.70.

As a reminder, the pIC50 is the IC50 on a negative log10 scale, so that one unit is a factor of ten.

(Values after US20090203726A1, “SUBSTITUTED TETRAHYDROQUINOLINES AS ANTIBACTERIAL AGENTS” (priority 2007, published 2009).)
